From patent publication US12435031B2, “Compound with broad-spectrum antibacterial activity and its antibacterial composition” (CHINA AGRICULTURAL UNIVERSITY, priority 2023, dated 2025)
Converted amounts (≈) assume the structure as drawn. Like-named read-outs stand apart in the source and are kept apart here.

How the values were obtained:
[1] = system: Streptococcus; assay: microbe, parasite or virus in culture; assay type: cell-based; settings: for MIC: read-out: MICs
[2] = system: MRSA T144; settings: Galleria mellonella infected with MRSA T144, 2 mg/kg b.w. 1 hour after infection, within 5 days
[3] = system: Clostridium perfringens; assay: microbe, parasite or virus in culture; assay type: cell-based; settings: read-out: MICs
[4] = system: Clostridium perfringens; assay: microbe, parasite or virus in culture; assay type: cell-based; settings: Clostridium perfringens
[5] = system: Mycobacterium smegmatis; assay: microbe, parasite or virus in culture; assay type: cell-based; settings: Mycolicibacterium smegmatis, read-out: MICs
[6] = system: Staphylococcus; assay: microbe, parasite or virus in culture; assay type: cell-based; settings: for MIC: read-out: MICs
[7] = system: Bacillus; assay: microbe, parasite or virus in culture; assay type: cell-based; settings: for MIC: read-out: MICs
[8] = system: Trichophyton ATCC MTA-4439; assay: MIC against pathogenic fungi, Trichophyton; assay type: cell-based
[9] = system: Haemophilus; assay: MIC, broth microdilution, Haemophilus; assay type: cell-based
[10] = system: Aspergillus niger ATCC 96918; assay: MIC against pathogenic fungi, Aspergillus niger; assay type: cell-based; settings: for MICs: Aspergillus niger ATCC 96918
[11] = system: Candida albicans, Aspergillus flavus, Aspergillus niger, and Trichophyton; assay: MIC against common clinical pathogenic fungi (summary); assay type: cell-based; settings: range over species
[12] = MIC against pathogenic fungi, Candida ATCC 6258; assay type: cell-based; settings: Candida albicans ATCC 6258 (Candida krusei ATCC 6258)
[13] = system: MRSA T144; settings: BAB159 at its MIC concentration, OD 600 nm over 24 hours
[14] = system: Enterococcus; assay: microbe, parasite or virus in culture; assay type: cell-based
[15] = system: MRSA T144; settings: C57BL/6J mice infected i.p. with MRSA T144, 10 mg/kg b.w. 1 hour after infection, within 3 days
[16] = Pharmacokinetics in rabbit plasma after intramuscular injection; assay type: in vivo, rabbits; settings: for Cmax: 20 mg/kg
Procedure: In order to investigate the metabolic residues of BAB159 in model animals, rabbits were used as animal models to quantitatively analyze the levels of BAB159 in rabbit plasma. Male Chinese white rabbits weighing around 2 kg were adaptively fed for one week. Then, 2 mL of BAB159 suspension was injected into the left hind thigh muscle of the rabbits at a dose of 20 mg/kg b.w. Blood samples were collected from the ear vein at 8 time points, including 0.5, 1, 2, 4, 6, 8, 12, and 24 hours after administration. After pre-treatment of the plasma samples, UPLC-MS/MS detection was performed.

[17] = system: Aspergillus flavus ATCC 11492; assay: MIC against pathogenic fungi, Aspergillus flavus; assay type: cell-based
[18] = system: Staphylococcus aureus ATCC 25923; assay: Growth curve (OD 600 nm, 24 h), Staphylococcus aureus; settings: Staphylococcus aureus ATCC 25923, BAB159 at its MIC concentration, OD 600 nm over 24 hours
[19] = read-out: minimum inhibitory concentration (MIC50)
[20] = male, Chinese white, im, rabbit plasma, intramuscular injection, 20 mg/kg b.w.
[21] = male, Chinese white, rabbit, plasma, im, rabbits, intramuscular injection, 20 mg/kg b.w.

CN[C@H](CC(C)C)C(=O)N[C@H]1C(=O)N[C@@H](CC(N)=O)C(=O)N[C@H]2C(=O)N[C@H]3C(=O)N[C@H](C(=O)N[C@H](C(=O)O)c4cc(O)cc(O)c4-c4cc3ccc4O)[C@H](O)c3ccc(c(Cl)c3)Oc3cc2cc(c3O[C@@H]2O[C@H](CO)[C@@H](O)[C@H](O)[C@H]2O[C@H]2C[C@](C)(N)[C@H](O)[C@H](C)O2)Oc2ccc(cc2Cl)[C@H]1O [VAN, Vancomycin] showed an MIC [1] of 0.25 µg/mL (≈ 0.173 µM), a protective rate [2] of 40% and an MIC [3] of 0.5 µg/mL (≈ 0.345 µM). For the same molecule, the MIC ([4]; read-out: MIC value against Clostridium perfringens) was ≤ 0.25 µg/mL, the MIC [5] was 16 µg/mL (≈ 11 µM) and the MIC ([6]; Staphylococcus) was 1 µg/mL (≈ 0.69 µM). It also gave an MIC [7] of 0.5 µg/mL (≈ 0.345 µM).
O=C(Nc1ccc(C(F)(F)F)c(Cl)c1Cl)c1cc(Cl)ccc1O [BAB159] showed an MIC ([8]; Trichophyton, read-out: MICs) of 0.125 µg/mL (≈ 0.325 µM), an MIC50 ([9]; Haemophilus, read-out: minimum inhibitory concentration (MIC50)) of 16 µg/mL (≈ 41.6 µM) and an MIC ([9]; gram-negative bacteria such as Haemophilus) of 8 to 32 µg/mL (≈ 20.8 to 83.2 µM). For the same molecule, the MICs [10] was 0.5 µg/mL, the MIC ([10]; Aspergillus niger, ATCC96918, Aspergillus niger ATCC 96918) was 0.25 µg/mL (≈ 0.65 µM) and the MIC [1] was 0.125 µg/mL (≈ 0.325 µM). It also gave an MIC50 [1, 19] of 0.125 µg/mL (≈ 0.325 µM), an MIC [11] of 0.5 to 1 µg/mL (≈ 1.3 to 2.6 µM) and a protective rate [2] of 70%. The MIC [3] was 0.25 µg/mL (≈ 0.65 µM), the MIC ([12]; ATCC6258) was 1 µg/mL (≈ 2.6 µM) and the “growth inhibition (growth curve)” value [13] was “significantly inhibit the growth”. The MIC50 [4] was 0.25 µg/mL (≈ 0.65 µM), the MIC90 [4] was 0.5 µg/mL (≈ 1.3 µM) and the MIC ([4]; read-out: MIC value against Clostridium perfringens, strain A3-1 (A-type)) was 0.5 µg/mL (≈ 1.3 µM). It also gave an MIC ([4]; read-out: MIC value against Clostridium perfringens, strain A3-2 (A-type)) of 0.25 µg/mL (≈ 0.65 µM), an MIC ([4]; read-out: MIC value against Clostridium perfringens, strain A57-1 (A-type)) of 0.25 µg/mL (≈ 0.65 µM) and an MIC ([4]; read-out: MIC value against Clostridium perfringens, strain B4 (B-type)) of 0.5 µg/mL (≈ 1.3 µM). The MIC ([4]; read-out: MIC value against Clostridium perfringens, strain B5 (B-type)) was 0.25 µg/mL (≈ 0.65 µM), the MIC ([4]; read-out: MIC value against Clostridium perfringens, strain C3 (C-type)) was 0.5 µg/mL (≈ 1.3 µM) and the MIC ([4]; read-out: MIC value against Clostridium perfringens, strain C8 (C-type)) was 0.25 µg/mL (≈ 0.65 µM). For the same molecule, the MIC ([4]; read-out: MIC value against Clostridium perfringens, strain C59-1 (C-type)) was 0.25 µg/mL (≈ 0.65 µM), the MIC ([4]; read-out: MIC value against Clostridium perfringens, strain D14B (D-type)) was 0.25 µg/mL (≈ 0.65 µM) and the MIC ([4]; read-out: MIC value against Clostridium perfringens, strain F5-2 (F-type)) was 0.25 µg/mL (≈ 0.65 µM). The MIC ([4]; read-out: MIC value against Clostridium perfringens, strain F6-1 (F-type)) was 0.25 µg/mL (≈ 0.65 µM), the MIC ([4]; read-out: MIC value against Clostridium perfringens, strain F6-2 (F-type)) was 0.5 µg/mL (≈ 1.3 µM) and the MIC ([4]; read-out: MIC value against Clostridium perfringens, strain F6-2-1 (F-type)) was 0.5 µg/mL (≈ 1.3 µM). For the same molecule, the MIC ([4]; read-out: MIC value against Clostridium perfringens, strain F6-2-2 (F-type)) was 0.25 µg/mL (≈ 0.65 µM), the MIC ([4]; read-out: MIC value against Clostridium perfringens, strain F7-1 (F-type)) was 0.5 µg/mL (≈ 1.3 µM) and the MIC ([4]; read-out: MIC value against Clostridium perfringens, strain F8-1 (F-type)) was 0.5 µg/mL (≈ 1.3 µM). The MIC ([4]; read-out: MIC value against Clostridium perfringens, strain H12-1 (H-type)) was 0.25 µg/mL (≈ 0.65 µM), the MIC ([4]; read-out: MIC value against Clostridium perfringens, strain H12-2 (H-type)) was 0.25 µg/mL (≈ 0.65 µM) and the MIC ([4]; read-out: MIC value against Clostridium perfringens, strain H13-1 (H-type)) was 0.5 µg/mL (≈ 1.3 µM). It also gave an MIC ([4]; read-out: MIC value against Clostridium perfringens, strain H14-1 (H-type)) of 0.5 µg/mL (≈ 1.3 µM), an MIC ([4]; read-out: MIC value against Clostridium perfringens, strain H14-2 (H-type)) of 0.5 µg/mL (≈ 1.3 µM) and an MIC ([4]; read-out: MIC value against Clostridium perfringens, strain H14-4 (H-type)) of 0.5 µg/mL (≈ 1.3 µM). It also gave an MIC ([4]; read-out: MIC value against Clostridium perfringens, strain H15-1 (H-type)) of 0.25 µg/mL (≈ 0.65 µM), an MIC ([4]; read-out: MIC value against Clostridium perfringens, strain H15-2 (H-type)) of 0.5 µg/mL (≈ 1.3 µM) and an MIC ([4]; read-out: MIC value against Clostridium perfringens, strain H15-3 (H-type)) of 0.25 µg/mL (≈ 0.65 µM). The MIC ([4]; read-out: MIC value against Clostridium perfringens, strain H16 (H-type)) was 0.25 µg/mL (≈ 0.65 µM), the MIC ([4]; read-out: highest MIC value, against 26 tested strains of Clostridium perfringens) was 0.5 µg/mL (≈ 1.3 µM) and the MIC ([14]; read-out: MICs) was 0.25 µg/mL (≈ 0.65 µM). It also gave an MIC50 [14, 19] of 0.25 µg/mL (≈ 0.65 µM), an MIC [5] of 2 µg/mL (≈ 5.2 µM) and an MIC50 ([6]; Staphylococcus) of 0.0156 µg/mL (≈ 0.0406 µM). For the same molecule, the MIC ([6]; Staphylococcus) was 0.01 µg/mL (≈ 0.026 µM), the MIC50 [6, 19] was 0.01 µg/mL (≈ 0.026 µM) and the protective rate [15] was 100%. The AUIC ([16]; AUC after intramuscular injection in rabbits to MIC50 against Staphylococcus) was 109, the AUC [16, 20] was 1710 ng·h/mL and the Tmax [16, 20] was 6 h. It also gave a Cmax ([16]; male, Chinese white, rabbit, plasma, im, rabbit plasma, intramuscular injection, 20 mg/kg b.w., read-out: Cmax) of 207 ng/mL, an AUC(0-t) [16, 21] of 1640 ± 70.5 ng·h/mL and a half-life [16, 21] of 16.1 ± 3.6 h. The Cmax ([16]; rabbit plasma, intramuscular injection, 20 mg/kg b.w.) was 148.2 ± 13.05 ng/mL, the MIC ([17]; ATCC11492) was 1 µg/mL (≈ 2.6 µM) and the MIC [7] was 0.01 µg/mL (≈ 0.026 µM). For the same molecule, the MIC50 [7, 19] was 0.01 µg/mL (≈ 0.026 µM) and the “growth inhibition (growth curve)” value [18] was “significantly inhibit the growth”.
For C[C@@H]1[C@H](O)[C@@H](C)/C=C/C=C/C=C/C=C/C=C/C=C/C=C/[C@H](O[C@@H]2O[C@H](C)[C@@H](O)[C@H](N)[C@@H]2O)C[C@@H]2O[C@](O)(C[C@@H](O)C[C@@H](O)[C@H](O)CC[C@@H](O)C[C@@H](O)CC(=O)O[C@H]1C)C[C@H](O)[C@H]2C(=O)O [Amphotericin B], the MICs ([8]; Trichophyton ATCC MTA-4439) was 0.25 µg/mL, the MICs [10] was 0.125 µg/mL and the MICs [12] was 0.5 µg/mL. It also gave an MICs [17] of 0.25 µg/mL.
